Test results taken from paper PMC10630888, “Nuclear ERK1/2 signaling potentiation enhances neuroprotection and cognition via Importinα1/KPNA2” (EMBO Molecular Medicine, 2023).
Where “and” joins values, the source holds several entries; their conditions need not be identical. Identical values can stand only once.

How the values were obtained:
[1] = tested on: S6 (Ser240/244) phosphorylation; test: Striatal pS6 (Ser240/244) immunofluorescence 1 h after single injection; format: in vivo, mouse; conditions: single injection 20 mg/kg i.p., individual mice
Method: Immunofluorescence was performed as described in Papale et al ([2016]). Briefly, 1 h after blocking in 5% normal goat serum, slices were incubated overnight at 4°C with the following primary antibodies: anti‐phospho (Ser10)‐acetylated (Lys14) histone H3 (1:1,000, Millipore), anti‐phospho‐S6 ribosomal protein (Ser235/236) (1:200, Cell Signaling Technology) anti‐phospho‐S6 ribosomal protein (Ser240/244) (1:200, Cell Signaling), cleaved caspase‐3 (1:200, Cell Signaling Technology), anti‐mutant Huntingtin (1:100, Developmental Studies Hybridoma Bank, University of Iowa, #MW8), and NeuN (1:1,000, Millipore). […]
In ex‐vivo and in‐vivo immunofluorescence experiments, the number of p‐S6 or p‐AcH3 immunoreactive neurons among NeuN‐positive neurons was counted in 2–3 consecutive striatal sections per mouse in four fields per section. Caspase 3‐positive cells were quantified among NeuN‐positive neurons in each slide and expressed as percentage (ratio between caspase‐3‐positive cells and total NeuN‐positive neurons) for each field acquired through the slide. The number of cells showing mutant Huntingtin inclusions were expressed as a percentage of mutant Huntingtin‐positive cells among DAPI‐positive cells.

[2] = tested on: p-ERK1/2 in DARPP-32+ neurons; test: p-ERK1/2 in DARPP-32+ iPSC-derived HD MSNs; format: cell-based, human; conditions: for p-ERK1/2 in DARPP-32+ neurons (Fig 5 panel e): individual replicates
Method: The human induced pluripotent stem cell line CS09iHD109‐n1 (herein referred to as Q109N1) was originally generated from a human fibroblast line ND39258 (RRID:CVCL_ZC78) with an expanded HTT allele initially containing 109 pure CAG trinucleotides, and the isogenic control lines used were derived by CRISPR gene‐edit to reduce the CAG repeat length to 20 repeats (Mattis et al, [2015]). IPSCS were cultured on hESC‐qualified Matrigel (Corning) in E8‐Flex medium (Thermo Fisher) and passaged with RelesR (Stem Cell Technologies) according to the manufacturer's instructions. For neural differentiation iPSCS were grown to 70% confluency and then treated with 10 μM Y‐27632 (Tocris) for 1 h before harvesting by dissociation to a single cell suspension using accutase (Sigma). IPSCs were replated onto fresh Matrigel‐coated plates at a split ratio of 1:2, in E8‐Flex medium containing 10 μM Y‐27632. After overnight culture, IPSCs at 80–90% confluency were washed with PBS pH 7.4 (Gibco) and then switched to neural induction medium (Advanced DMEM/F12 (1:1) supplemented with 2 mM GlutamaxTM (Gibco), 2% Neurobrew without vitamin A (Miltenyi), 10 μM SB431542, 1 μM LDN 193189 (both Stem Cell Technologies), and 1.5 μM IWR1 (Tocris)). Medium was changed daily until day 8, when cells were passaged 1:2 by cell dissociation with Accutase for 5 min at 37°C and replated on Matrigel® coated plates in LIA medium containing (Advanced DMEM/F12 (1:1) supplemented with 2 mM GlutamaxTM, 2% Neurobrew without vitamin A, 0.2 μM LDN 193189, 1.5 μM IWR1, and 20 ng/ml Activin A (Peprotech)). At day 16, cells were plated for neuronal differentiation according to (Telezhkin et al, [2016]). […]
Images were acquired using a confocal microscope (Zeiss LSM710) under a 20× objective and analyzed with ImageJ software.

GRKKRRQRRRPPQGGGGGEPRRTEGVGPGVPGEVEMVKGQPFDV [RB5, six D-amino acids, acetylated N-terminus]
pS6 (Ser240/244) positive neurons in striatum [1]: no effect | p-ERK1/2 in DARPP-32+ neurons (Fig 5 panel e) ([2]; CTR iPSC-derived MSNs): 32.3403 and 42.5 and 40 and 34.7652 and 35.2993 | p-ERK1/2 in DARPP-32+ neurons ([2]; HD and isogenic control iPSC-derived MSNs, 50 μM, 30 min): upregulated | p-ERK1/2 in DARPP-32+ neurons (Fig 5 panel e) ([2]; HD iPSC-derived MSNs): 36.3889 and 24.1289 and 36.2319 and 31.1704 and 41.2043 and 24.6269
